Results as given in patent US8216825B2, “Aquaculture biocide methods and compositions” (priority 2010, dated 2012).
Entries after “also recorded” stand apart in the source; their conditions may differ.

How the values were obtained:
humans or algae = conditions: background statement; cited from earlier work
Brachionus plicatilis = conditions: Marcial et al. (2005), lower concentration of the project is 30 mg/L; cited from earlier work
Chlorella sp. [1] = test: Methoprene with acetone added to Chlorella, growth (Example 2); type: cell-based; conditions: methoprene 20 mg/L with acetone 2% v/v
Procedure: Methoprene at 20 mg/L with acetone at 2% v/v was added to Chlorella sp.

rotifers [2] = conditions: at concentrations found in this study to be nontoxic to algae; literature findings; cited from earlier work
Brachionus sp. rotifers [3] = test: 12-day mason jar test, algal optical density at 680 nm, algae with rotifers (Example 1); type: in vivo
Procedure: (§1) Algae were expanded into 500 ml of 20% artificial seawater in mason jars and subjected to five treatment conditions. Five replicates were conducted for each of the conditions. The test conditions were: control (algae only), rotifers without methoprene (A+R), methoprene without rotifers (A+M) methoprene with rotifers (A+R+M), and double concentration methoprene with rotifers (A+R+2M). In the mason jars containing solutions “with rotifers”, 9 mL of media were replaced with rotifer solution. In the A+M and A+R+M groups, the solution was modified to give a methoprene concentration of 30 mg/L. In the A+R+2M group, the solution was modified to give a methoprene concentration of 62 mg/L.
(§2) During the test period, algae was kept on a 12-hour light: 12-hour dark photoperiod at 26.8° C. The pH and specific gravity of the 20% artificial seawater solution were measured to be 8.92±0.02 and 1.013 respectively.
(§3) Optical density measurements were taken on days 5, 6, and 12 after inoculation. Each jar was first agitated either by gently rocking back and forth until minimal algal residue could be seen on the bottom. Occasionally, a sterile tube or pipette was employed to scrape some residue into the solution. Once minimal algal residue remained in the jar, a 5-mL sample of solution was pipetted out with a sterile pipette. The sample's optical density was read with a spectrometer at 680 nm. Control and A+R sample readings were blanked with a solution of 10 mL modified Bristol medium per 40 mL 20% artificial seawater. A+M and A+R+M sample readings were blanked with a solution of 10 mL modified Bristol medium per 38.5 mL 20% artificial seawater and 1.5 mL methoprene-seawater solution. A+R+2M sample readings were blanked with a solution of 10 mL modified Bristol medium per 36.9 mL 20% artificial seawater and 3.1 mL methoprene-seawater solution. Optical density readings were taken in absorbance units.

Chlorella sp. [4] = test: Biocide toxicity tests in test tubes, algal optical density at 680 nm (Example 5); type: cell-based; conditions: for mean optical density on day 12 compared with control group: 20 mg/L methoprene, 2% acetone respectively, P>0.05; for mean optical density on day 12 compared with control group / inhibition of algal growth: 2.0 mg/L resmethrin; for inhibition of algal growth: applied without rotifers, experimental concentrations 20 mg/L methoprene, 2% acetone; for mean optical density at day 12 compared with control: printed P>0.5
Procedure: 27 ml of Chlorella in Alga-Gro Freshwater Medium were added to 300 ml modified Bristol medium and allowed to grow without agitation for 30 hours. The 327 ml of algal solution were then expanded into a total of 700 ml modified Bristol medium and allowed to grow without agitation. After 42 hours, the 700 ml of algal solution were split up into 60 individual test tubes. Each test tube received 10 ml of algal solution, along with 1 ml of rotifer solution (or media) and 4 ml of reagent solution, for a total of 15 ml.
An initial Brachionus sp. population of about 30 individuals was cultured without agitation in one 60-ml jar for 3 days. Then, 1 ml of rotifer solution was pipetted into each of the 40 test tubes designated for rotifer toxicity assessment.
The 60 test tubes represented 12 groups, each with five replicates. The test group names and conditions are as follows (Table 4). The group “20M−R” contained algae, 20 mg/l of methoprene, and no rotifers. The group “20M+R” contained algae, 20 mg/l of methoprene, and rotifers. The group “5M+R” contained algae, 5 mg/l of methoprene, and rotifers. The group “5M+A+R” contained 5 mg/l of methoprene, 2% acetone (v/v), and rotifers. The group “2R−R” contained algae, 2.0 mg/I of resmethrin, and no rotifers. The group “2R+R” contained algae, 2.0 mg/l of resmethrin, and rotifers. The group “5R+R” contained algae, 0.5 mg/l of resmethrin, and rotifers. The group “5R+A+R” contained 0.5 mg/l of resmethrin, 2% acetone, rotifers. The group “A−R” contained algae, 2% acetone and no rotifers. The group “A+R” contained algae, 2% acetone and rotifers. The group “R” contained algae and rotifers without any extra reagents. The group “C” contained algae in media only.
Organisms were cultured and assessed for a test period of 12 days. During the test period, organisms were subjected to agitation at 60 rpm and a photoperiod of 12 hr light, 12 hr dark. The day that organisms were combined into the 60 test tubes was designated as day 0. A 1000-μl sample was removed from each tube for optical density analysis every other day, beginning on day 0. The optical densities of these samples were determined spectrometrically at 680 nm. On days 0, 6, and 12, a 250-μl sample was removed from each of the 1000-μl samples from rotifer-containing groups. Rotifers per 250-μl sample were counted with a dissecting microscope.
The optical densities of each of the 12 groups in the pesticide toxicity tests were averaged and plotted on a time plot (FIGS. 3 & 4). Standard deviation values and average algal growth rates were calculated for each group and day. T-tests were performed to determine the statistical significance of difference between relevant means. A linear regression model was used to compare the optical density averages of the “20M−R” group and the “C” control group. A linear regression of time against optical density in the control group of tubes was compared with a logarithmic regression model of time against optical density in the control flask. (FIG. 5).

rotifers [5] = test: Rotifer-infested photobioreactor, methoprene with acetone (Example 3); type: in vivo; conditions: methoprene 30 mg/L or less with acetone between 1 and 27 ml/L; present-tense example
Procedure: Methoprene at a concentration of 30 mg/L or less is added to the algal solution in a rotifer-infested photobioreactor. Acetone at a concentration between 1 and 27 ml/L is also added as an adjuvant. At these concentrations, acetone may (while subjecting the algal crop to minimal harm) act as a surfactant, allowing methoprene to become more dissolved. […] Wait approximately 30 days before renewing the media so that methoprene can biodegrade sufficiently before disposal of water.

Brachionus sp. rotifers [6] = test: Live rotifer count by microscopy in 30-μL samples (Example 1); type: in vivo; conditions: 13 days after inoculation
Procedure: One day prior to the general test period, the rotifer concentration was determined. The rotifer concentration of the bottle was estimated by counting rotifers in three trials of 30-μL samples with a Swift microscope at 1.25× magnification. Rotifer concentration was estimated again with the same procedure on the day of inoculation.
12 days after inoculation a 5-mL sample was extracted from each of the 15 jars containing rotifer solution. 24 hours after extraction, these samples were examined with microscopy. From each of the fifteen 5-mL samples, three 30-μL samples were pipetted onto glass slides and the rotifers were counted with a stereoscopic microscope at 2×-4× magnification.

Chlorella sp. [7] = test: 12-day mason jar test, algal optical density at 680 nm, algae without rotifers (Example 1); type: cell-based; conditions: A+M: 30 mg/L methoprene, no rotifers
Procedure: as §1, §2, §3

[8] = background statement; cited from earlier work
rotofers = test: Alpha-pinene/propylene glycol in algal medium, rotifer control (Example 4); type: in vivo; conditions: approx. 1:1 (w/w) alpha-pinene and propylene glycol, equal to or less than 136 mg/L; present-tense example
Procedure: (§4) An approximate 1:1 (w/w) solution of alpha-pinene and propylene glycol is made. Alpha-pinene is the active agent, while propylene glycol is a surfactant. This mixture is added to the algal medium at a concentration equal to or less than 136 mg/L. Daphnia magna and rotofers are controlled in the aquaculture.

Daphnia magna = test: Alpha-pinene/propylene glycol in algal medium, Daphnia control (Example 4); type: in vivo; conditions: approx. 1:1 (w/w) alpha-pinene and propylene glycol, equal to or less than 136 mg/L; present-tense example
Procedure: as §4

SMILES: COC(C)(C)CCC[C@H](C)C/C=C/C(C)=C/C(=O)OC(C)C (racemic) [methoprene]
- toxicity to humans or algae (humans or algae): practically non-toxic
- 24-hr LC50 (Brachionus plicatilis): lower methoprene concentration utilized in this project
- growth reduction of Chlorella sp. (Chlorella sp. [1]): No growth reduction
- harm to rotifers (rotifers [2]): significantly harmful to rotifers
- Mean optical density ± one standard deviation (Brachionus sp. rotifers [3]; A+R+2M: 62 mg/L methoprene with rotifers, 5 days): 0.6 ± 0.2
- Mean optical density ± one standard deviation (Brachionus sp. rotifers [3]; A+R+2M: 62 mg/L methoprene with rotifers, 6 days): 0.7 ± 0.1
- Mean optical density ± one standard deviation (Brachionus sp. rotifers [3]; A+R+2M: 62 mg/L methoprene with rotifers, 12 days): 0.7 ± 0.2
- Mean optical density ± one standard deviation (Brachionus sp. rotifers [3]; A+R+M: 30 mg/L methoprene with rotifers, 5 days): 0.6 ± 0.2
- Mean optical density ± one standard deviation (Brachionus sp. rotifers [3]; A+R+M: 30 mg/L methoprene with rotifers, 6 days): 0.7 ± 0.2
- Mean optical density ± one standard deviation (Brachionus sp. rotifers [3]; A+R+M: 30 mg/L methoprene with rotifers, 12 days): 0.7 ± 0.2
- average specific growth rate of algae (Brachionus sp. rotifers [3]; A+R+M: 30 mg/L methoprene with rotifers, between 5 and 12 days after inoculation): 0.0078 log(AU)/day
- average optical density (Brachionus sp. rotifers [3]; double methoprene concentration with rotifers (A+R+2M, 62 mg/L), 12 days): 0.71 AU
- average optical density (Brachionus sp. rotifers [3]; methoprene with rotifers (A+R+M, 30 mg/L), 12 days, rotifers only 0.47 AU, control 0.96 AU): 0.69 AU
- mean optical density on day 12 compared with control group (Chlorella sp. [4]): not significantly different
- inhibition of algal growth (Chlorella sp. [4]): Neither methoprene, resmethrin, nor acetone, when applied without rotifers, was found to inhibit algal growth
- inhibition of algal growth (Chlorella sp. [4]; listed as Methoprene): not found to inhibit algal growth
- mean optical density at day 12 compared with control (Chlorella sp. [4]; group 5M+R: 5 mg/L methoprene, rotifers): significantly lower
- effect on rotifers (rotifers [5]): eliminates rotifers
- live rotifers in 30-μL samples (Brachionus sp. rotifers [6]; A+R+2M: 62 mg/L methoprene): zero
- live rotifers in 30-μL samples (Brachionus sp. rotifers [6]; A+R+M: 30 mg/L methoprene, A+R group 8.7 per 30 μL): zero
- Mean optical density ± one standard deviation (Chlorella sp. [7]; 5 days after inoculation): 0.84 ± 0.02
- Mean optical density ± one standard deviation (Chlorella sp. [7]; 6 days): 0.89 ± 0.01
- Mean optical density ± one standard deviation (Chlorella sp. [7]; 12 days): 0.93 ± 0.02
- average specific growth rate of algae (Chlorella sp. [7]; between 5 and 12 days after inoculation): 0.0065 log(AU)/day
- degradation in sunlight [8]: rapidly degrades in sunlight

SMILES: CC(C)=O [acetone]
- mean optical density on day 12 compared with control group (Chlorella sp. [4]): not significantly different
- inhibition of algal growth (Chlorella sp. [4]): Neither methoprene, resmethrin, nor acetone, when applied without rotifers, was found to inhibit algal growth; also recorded: not found to inhibit algal growth

SMILES: CC1=CCC2CC1C2(C)C (stereo not drawn) [alpha-pinene]
- control of rotifers in the aquaculture (rotofers): controlled
- control of Daphnia magna in the aquaculture (Daphnia magna): controlled

SMILES: CC(C)=CC1C(C(=O)OCc2coc(Cc3ccccc3)c2)C1(C)C (stereo not drawn) [resmethrin]
- harm to rotifers (rotifers [2]): significantly harmful to rotifers
- mean optical density on day 12 compared with control group (Chlorella sp. [4]): not significantly different
- inhibition of algal growth (Chlorella sp. [4]): Neither methoprene, resmethrin, nor acetone, when applied without rotifers, was found to inhibit algal growth; also recorded: not found to inhibit algal growth
- mean optical density at day 12 compared with control (Chlorella sp. [4]; group 2R−R as printed: 2.0 mg/L resmethrin, no rotifers): significantly lower
